Results published in patent US4546076A, “Enzymatic process for the determination of beta-lactam antibiotics” (U C B Societe Anonyme, priority 1982, dated 1985).

Assays:
Assay type in all cases: biochemical
[1] = target: T1, D-alanyl-D-alanine-carboxypeptidase produced by Actinomadura R 39 (enzyme R 39), immobilized (Actinomadura sp., UniProt P39045); assay: Dosage of cephalosporin C in serum with immobilized enzyme R 39 at higher temperature (Example 4)
T1 construct: which is excreted by Actinomadura R 39 when this microorganism; made in house; host or cells: Actinomadura R 39 (natural producer; deposit Institut Pasteur No. I-127), purified as in Frere et al., Biochem. J. 143 (1974) 233-240
Method: The procedure of Example 3 is followed but each incubation is carried out at 47° C. and at half the time.
Moreover, to each ml sample of serum, there is previously added 100 μl of 0.5M (pH 7.7) Hepes buffer containing 0.5M NaCl and 0.25M MgCl2.

[2] = target: T1, D-alanyl-D-alanine-carboxypeptidase produced by Actinomadura R 39 (enzyme R 39), immobilized; assay: Dosage of cephalosporin C in serum with immobilized enzyme R 39 (Example 3)
Method: (§1) A series of 1 ml milk samples each containing a known concentration of penicillin G and two 1 ml milk samples (blank and control) not containing penicillin G are prepared.
(§2) 5.5 mg of immobilized enzyme R 39 (=3 picomols of enzyme) are added to each sample and the mixture is incubated for 20 minutes at 37° C.
(§3) The milk is then separated from the immobilized enzyme by filtration and the immobilized enzyme is washed three times with 1 ml of 0.1M Hepes buffer (pH=7.7) containing 0.1M NaCl and 0.05M MgCl2.
(§4) Either 20 μl of 0.1M Hepes buffer (pH=7.7) containing 0.1M NaCl and 0.05M MgCl2 and 10 μl of the substrate solution (in the case of the control sample and the samples containing penicillin G), or 20 μl of the Hepes buffer and 10 μl of water (in the case of the blank sample), are then added to the separated and washed immobilized enzyme. The mixture is incubated for 30 minutes at 37° C.
(§5) At the end of this incubation, 2 μl of the D-amino acid oxidase suspension, 60 μl of the FAD solution, 10 μl of the peroxidase solution and 5 μl of the o-dianisidine solution are added respectively to the product obtained; the mixture is then incubated again for 10 minutes at 37° C.
(§6) The optical density of the colored solutions obtained is then measured on a spectrophotometer. For this purpose, 1 ml of a methanol/water solution (proportions 1:1) is added to the cell and the optical density is measured at 460 nm.
(§7) The optical density value found for the blank sample is subtracted from the optical density values found respectively for the control sample and for the other samples. Finally, the percentage residual enzymatic activity is calculated for each sample from the optical density values thus obtained.
The procedure of Example 1 is followed, using the same reagents but replacing the 1 ml milk samples by 1 ml serum samples containing each a known concentration of cephalosporin C.

[3] = target: T1, D-alanyl-D-alanine-carboxypeptidase produced by Actinomadura R 39 (enzyme R 39), immobilized; assay: Determination of penicillin G in serum with immobilized enzyme R 39 (Example 2); settings: 1 ml serum; for percentage residual enzymatic activity: 20 min
Method: as §1, §2, §3, §4, §5, §6, §7
(§8) The procedure of Example 1 is followed, using the same reagents but replacing the 1 ml milk samples by 1 ml serum or 1 ml urine samples.

[4] = target: T1, D-alanyl-D-alanine-carboxypeptidase produced by Actinomadura R 39 (enzyme R 39), immobilized; assay: Determination of penicillin G in urine with immobilized enzyme R 39 (Example 2); settings: 1 ml urine; for percentage residual enzymatic activity: 20 min
Method: as §1, §2, §3, §4, §5, §6, §7, §8

[5] = target: T1, D-alanyl-D-alanine-carboxypeptidase produced by Actinomadura R 39 (enzyme R 39), immobilized; assay: Determination of penicillin G in milk with immobilized enzyme R 39 (Example 1); settings: for coloration observed / optical density at 460 nm / optical density found minus optical density of the blank sample / percentage residual enzymatic activity: 1 ml milk; for percentage residual enzymatic activity: 20 min
Method: as §1, §2, §3, §4, §5, §6, §7

[6] = cephalosporin C 1 ng/ml, 1 ml serum, each incubation at 47° C. and half the time
[7] = cephalosporin C 2 ng/ml, 1 ml serum, each incubation at 47° C. and half the time
[8] = cephalosporin C 10 ng/ml, 1 ml serum, each incubation at 47° C. and half the time
[9] = cephalosporin C 1 ng/ml, 1 ml serum, 37° C.
[10] = cephalosporin C 2 ng/ml, 1 ml serum, 37° C.
[11] = cephalosporin C 10 ng/ml, 1 ml serum, 37° C.
[12] = penicillin G 0.0005 I.U./ml, 1st series
[13] = penicillin G 0.0005 I.U./ml, 2nd series
[14] = penicillin G 0.0010 I.U./ml, 1st series
[15] = penicillin G 0.0010 I.U./ml, 2nd series
[16] = penicillin G 0.0015 I.U./ml, 2nd series
[17] = penicillin G 0.0020 I.U./ml, 1st series
[18] = penicillin G 0.0020 I.U./ml, 2nd series
[19] = penicillin G 0.0041 I.U./ml, 1st series
[20] = penicillin G 0.0082 I.U./ml, 1st series

T1 sequence (P39045 50-538): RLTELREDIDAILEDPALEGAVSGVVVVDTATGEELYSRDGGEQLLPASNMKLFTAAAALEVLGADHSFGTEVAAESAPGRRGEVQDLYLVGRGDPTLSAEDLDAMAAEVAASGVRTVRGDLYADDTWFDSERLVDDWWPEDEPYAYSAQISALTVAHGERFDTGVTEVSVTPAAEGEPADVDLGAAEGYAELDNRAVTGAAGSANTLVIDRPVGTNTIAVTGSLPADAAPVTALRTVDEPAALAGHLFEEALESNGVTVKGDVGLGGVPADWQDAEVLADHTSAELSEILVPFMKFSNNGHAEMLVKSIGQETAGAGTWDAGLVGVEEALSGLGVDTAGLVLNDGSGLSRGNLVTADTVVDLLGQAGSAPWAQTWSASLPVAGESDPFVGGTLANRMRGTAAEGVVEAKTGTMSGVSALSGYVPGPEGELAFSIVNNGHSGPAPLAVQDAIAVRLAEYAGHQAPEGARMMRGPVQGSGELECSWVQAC

Question: `CC(=O)OCC1=C(C(=O)O)N2C(=O)[C@@H](NC(=O)CCC[C@@H](N)C(=O)O)[C@H]2SC1` [cephalosporin C] was tested. Which remaining activity at 0.01 µg/mL ([1]; 10 min, read-out: percentage residual enzymatic activity) did it give?
Answer: The remaining activity at 0.01 µg/mL was 0%.

Question: What about the remaining activity at 0.001 µg/mL ([1]; 10 min, cephalosporin C 1 ng/ml, 1 ml serum, each incubation at 47° C. and half the time, read-out: percentage residual enzymatic activity) of the same molecule?
Answer: Its remaining activity at 0.001 µg/mL is 41%.

Question: And the remaining activity at 0.002 µg/mL ([1]; 10 min, cephalosporin C 2 ng/ml, 1 ml serum, each incubation at 47° C. and half the time, read-out: percentage residual enzymatic activity)?
Answer: Its remaining activity at 0.002 µg/mL is 0%.

Question: What about the coloration observed [1, 6] of the same molecule?
Answer: The coloration observed was “light brown”.

Question: And the “optical density at 460 nm” value [1, 6]?
Answer: The value was 0.095.

Question: What about the “optical density found minus optical density of the blank sample” value [1, 6] of the same molecule?
Answer: The value was 0.060.

Question: And the coloration observed [1, 7]?
Answer: The coloration observed was “light yellow”.

Question: What about the “optical density at 460 nm” value [1, 7] of the same molecule?
Answer: Its value is 0.035.

Question: What about the “optical density found minus optical density of the blank sample” value [1, 7] of the same molecule?
Answer: Its value is 0.000.

Question: What about the coloration observed [1, 8] of the same molecule?
Answer: Its coloration observed is “light yellow”.

Question: What about the “optical density at 460 nm” value [1, 8] of the same molecule?
Answer: Its value is 0.040.

Question: And the “optical density found minus optical density of the blank sample” value [1, 8]?
Answer: Its value is 0.005.

Question: And the remaining activity at 0.001 µg/mL ([2]; 20 min, read-out: percentage residual enzymatic activity)?
Answer: The remaining activity at 0.001 µg/mL was 44%.

Question: And the remaining activity at 0.002 µg/mL ([2]; 20 min, cephalosporin C 2 ng/ml, 1 ml serum, 37° C., read-out: percentage residual enzymatic activity)?
Answer: Its remaining activity at 0.002 µg/mL is 8%.

Question: What about the remaining activity at 0.01 µg/mL ([2]; 20 min, cephalosporin C 10 ng/ml, 1 ml serum, 37° C., read-out: percentage residual enzymatic activity) of the same molecule?
Answer: The remaining activity at 0.01 µg/mL was 0%.

Question: And the coloration observed [2, 9]?
Answer: Its coloration observed is “light yellow”.

Question: What about the “optical density at 460 nm” value [2, 9] of the same molecule?
Answer: The value was 0.085.

Question: What about the “optical density found minus optical density of the blank sample” value [2, 9] of the same molecule?
Answer: The value was 0.055.

Question: And the coloration observed [2, 10]?
Answer: Its coloration observed is “light yellow”.

Question: What about the “optical density at 460 nm” value [2, 10] of the same molecule?
Answer: Its value is 0.040.

Question: What about the “optical density found minus optical density of the blank sample” value [2, 10] of the same molecule?
Answer: Its value is 0.010.

Question: What about the coloration observed [2, 11] of the same molecule?
Answer: The coloration observed was “light yellow”.

Question: What about the “optical density at 460 nm” value [2, 11] of the same molecule?
Answer: The value was 0.030.

Question: What about the “optical density found minus optical density of the blank sample” value [2, 11] of the same molecule?
Answer: Its value is 0.000.

Question: Which results are given for `CC1(C)S[C@@H]2[C@H](NC(=O)Cc3ccccc3)C(=O)N2[C@H]1C(=O)O` [penicillin G, benzylpenicillin]?
Answer: concentration determined visually (light yellow coloration) [3]: at least 0.003 I.U./ml; coloration observed ([3]; penicillin G 0.003 I.U./ml): light yellow; optical density at 460 nm ([3]; penicillin G 0.003 I.U./ml): 0.035; optical density found minus optical density of the blank sample ([3]; penicillin G 0.003 I.U./ml): 0.005; percentage residual enzymatic activity ([3]; penicillin G 0.003 I.U./ml): 4%; coloration observed ([3]; penicillin G 0.010 I.U./ml): light yellow; optical density at 460 nm ([3]; penicillin G 0.010 I.U./ml): 0.030; optical density found minus optical density of the blank sample ([3]; penicillin G 0.010 I.U./ml): 0.000; percentage residual enzymatic activity ([3]; penicillin G 0.010 I.U./ml): 0%; concentration determined visually (light yellow coloration) [4]: at least 0.003 I.U./ml; coloration observed ([4]; penicillin G 0.003 I.U./ml): light yellow; optical density at 460 nm ([4]; penicillin G 0.003 I.U./ml): 0.040; optical density found minus optical density of the blank sample ([4]; penicillin G 0.003 I.U./ml): 0.010; percentage residual enzymatic activity ([4]; penicillin G 0.003 I.U./ml): 8%; coloration observed ([4]; penicillin G 0.010 I.U./ml): light yellow; optical density at 460 nm ([4]; penicillin G 0.010 I.U./ml): 0.035; optical density found minus optical density of the blank sample ([4]; penicillin G 0.010 I.U./ml): 0.005; percentage residual enzymatic activity ([4]; penicillin G 0.010 I.U./ml): 4%; coloration observed [5, 12]: brown; optical density at 460 nm [5, 12]: 0.170; optical density found minus optical density of the blank sample [5, 12]: 0.135; percentage residual enzymatic activity [5, 12]: 82%; coloration observed [5, 13]: yellow-brown; optical density at 460 nm [5, 13]: 0.145; optical density found minus optical density of the blank sample [5, 13]: 0.110; percentage residual enzymatic activity [5, 13]: 69%; coloration observed [5, 14]: yellow-brown; optical density at 460 nm [5, 14]: 0.150; optical density found minus optical density of the blank sample [5, 14]: 0.115; percentage residual enzymatic activity [5, 14]: 69%; coloration observed [5, 15]: yellow-brown; optical density at 460 nm [5, 15]: 0.100; optical density found minus optical density of the blank sample [5, 15]: 0.065; percentage residual enzymatic activity [5, 15]: 41%; coloration observed [5, 16]: yellow; optical density at 460 nm [5, 16]: 0.055; optical density found minus optical density of the blank sample [5, 16]: 0.020; percentage residual enzymatic activity [5, 16]: 12%; coloration observed [5, 17]: light yellow; optical density at 460 nm [5, 17]: 0.035; optical density found minus optical density of the blank sample [5, 17]: 0.000; percentage residual enzymatic activity [5, 17]: 0%; coloration observed [5, 18]: light yellow; optical density at 460 nm [5, 18]: 0.040; optical density found minus optical density of the blank sample [5, 18]: 0.005; percentage residual enzymatic activity [5, 18]: 3%; coloration observed [5, 19]: light yellow; optical density at 460 nm [5, 19]: 0.040; optical density found minus optical density of the blank sample [5, 19]: 0.005; percentage residual enzymatic activity [5, 19]: 3%; coloration observed [5, 20]: light yellow; optical density at 460 nm [5, 20]: 0.035; optical density found minus optical density of the blank sample [5, 20]: 0.000; percentage residual enzymatic activity [5, 20]: 0%; residual enzymatic activity ([5]; sample containing 0.002 I.U. or more per ml of milk): zero
